This passage reports solubility, half-life and IC50 results from patent publication US20230219965A1 (KSQ Therapeutics, Inc., priority 2020, published 2023).

Series [1] can be described thus: ADME solubility determination in PBS at pH 2.0 and pH 7.4. The conditions noted are these: phosphate buffered saline, 25 °C, thermodynamic from solid. Format: physicochemical. In a few lines: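 Solubility was read by LC-MS/MS on centrifuged supernatants, calibrated to a known-concentration standard and corrected for dilution. Compound, dried down from 10 mM DMSO stock, was equilibrated 24 h at 25° C with shaking in PBS at pH 2.0 or pH 7.4.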

The nature of series [2]: Liver microsomal metabolic stability, rat liver microsomes (RLM). The conditions noted are these: rat, liver microsomes, t1/2 (min) in RLM, 1 μM compound, 1 mg/mL microsomes, NADPH. In general terms: Microsomes from liver hold many membrane-bound enzymes, among them those of drug oxidation.
Series [3] in a line: Liver microsomal metabolic stability, human liver microsomes (HLM). The following applies: human, liver microsomes.
In series [4] the test system is Ub-PCNA levels in the nucleus of ES2 cells (USP1 activity). Briefly: ES2 Ub-PCNA immunofluorescence (IF) assay. The following applies: Homo sapiens, ES-2; ES2 cells, 3 hours, Ub-PCNA immunofluorescence; read-out: USP1 IC50 (Ub-PCNA). Format: cell-based. In a few lines:
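AC50 derived from percent Ub-PCNA-positive nuclei, positivity set by a 95% cutoff from untreated-well intensities. Readout by imaging immunofluorescence (anti-Ub-PCNA, DAPI nuclear mask) after methanol fixation. Compound exposure: 3 h at 37° C, 0.3% DMSO final, on cells plated overnight.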

In a further series the target is USP1/UAF1 enzyme (Homo sapiens, UniProt O94782). Briefly: USP1/UAF1 deubiquitination assay (ubiquitin-rhodamine 110 substrate). The format is biochemical. The following applies: read-out: USP1 IC50 (Ub-Rho). The essentials: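 Cleavage of 150 nM ubiquitin-rhodamine 110 by 0.05 nM USP1/UAF1 was followed as fluorescence (Ex480/Em540, kinetic, 30 min) in Tris-HCl pH 7.8 buffer with EDTA, BSA, DTT and Tween-20. Compounds, top 10 μM, were preincubated with enzyme 10 min; % inhibition against no-enzyme and DMSO wells gave four-parameter IC50s.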

Where [5] appears, read: pH 2, aqueous buffer, PBS pH 2.0, 25° C., read-out: Solubility at pH 2.0.
[6] abbreviates: pH 7.4, aqueous buffer, PBS pH 7.4, 25° C., read-out: Solubility at pH 7.4.

Where two headings read alike, the source gives them in different places. Some results are limits rather than exact numbers.

Chain of USP1/UAF1 enzyme (O94782 whole entry): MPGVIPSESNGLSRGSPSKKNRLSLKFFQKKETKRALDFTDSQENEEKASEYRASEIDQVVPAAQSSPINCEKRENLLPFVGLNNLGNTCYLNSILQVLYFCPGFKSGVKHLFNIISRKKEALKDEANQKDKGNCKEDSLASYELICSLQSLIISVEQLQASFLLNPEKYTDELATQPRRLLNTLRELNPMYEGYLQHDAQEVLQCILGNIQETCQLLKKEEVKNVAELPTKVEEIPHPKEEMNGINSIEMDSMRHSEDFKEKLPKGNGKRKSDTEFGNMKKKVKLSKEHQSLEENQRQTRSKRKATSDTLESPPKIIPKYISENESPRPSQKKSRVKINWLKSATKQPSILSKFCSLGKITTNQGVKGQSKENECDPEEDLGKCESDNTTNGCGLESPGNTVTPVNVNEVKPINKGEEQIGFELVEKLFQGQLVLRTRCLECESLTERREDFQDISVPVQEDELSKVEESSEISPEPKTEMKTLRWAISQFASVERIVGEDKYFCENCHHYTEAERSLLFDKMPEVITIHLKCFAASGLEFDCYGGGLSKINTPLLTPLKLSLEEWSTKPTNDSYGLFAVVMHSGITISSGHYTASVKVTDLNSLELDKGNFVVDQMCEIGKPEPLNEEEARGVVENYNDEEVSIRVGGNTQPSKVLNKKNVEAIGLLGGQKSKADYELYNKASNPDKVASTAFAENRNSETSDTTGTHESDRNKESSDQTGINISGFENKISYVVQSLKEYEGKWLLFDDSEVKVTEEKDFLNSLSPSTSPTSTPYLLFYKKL
Chain of USP1/UAF1 enzyme (Q8TAF3 whole entry partner): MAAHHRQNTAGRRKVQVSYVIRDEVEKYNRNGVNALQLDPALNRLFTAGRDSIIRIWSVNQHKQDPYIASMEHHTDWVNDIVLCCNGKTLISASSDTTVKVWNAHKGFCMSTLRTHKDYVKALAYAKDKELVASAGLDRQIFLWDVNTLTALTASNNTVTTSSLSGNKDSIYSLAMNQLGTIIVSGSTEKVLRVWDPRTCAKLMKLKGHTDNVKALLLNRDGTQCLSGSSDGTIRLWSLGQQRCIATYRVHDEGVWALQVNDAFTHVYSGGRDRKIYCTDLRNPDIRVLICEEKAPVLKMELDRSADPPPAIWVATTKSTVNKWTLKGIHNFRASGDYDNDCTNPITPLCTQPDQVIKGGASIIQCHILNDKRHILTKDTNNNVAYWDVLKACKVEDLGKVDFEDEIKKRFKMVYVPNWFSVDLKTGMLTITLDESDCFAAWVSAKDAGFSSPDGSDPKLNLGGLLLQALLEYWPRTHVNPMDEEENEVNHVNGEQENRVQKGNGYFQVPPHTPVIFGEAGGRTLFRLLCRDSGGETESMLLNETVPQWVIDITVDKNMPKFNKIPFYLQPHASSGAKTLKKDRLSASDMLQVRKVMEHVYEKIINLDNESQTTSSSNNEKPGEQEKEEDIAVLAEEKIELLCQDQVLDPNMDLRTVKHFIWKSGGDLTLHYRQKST

As a reminder, the solubility is the dissolved amount per volume that the medium holds. What is called half-life is how long it takes for the measured level to halve. Lower therefore signals rapid decline. Broadly, the IC50 is the concentration at which inhibition is half-maximal. Take `Cc1cnn(C(C)C)c1-c1nn2c(c1Cl)N(Cc1ccc(-c3nc(C(F)(F)F)cn3C)cc1)CCC2` [Example 147, 3-chloro-2-(1-isopropyl-4-methyl-1H-pyrazol-5-yl)-4-(4-(1-methyl-4-(trifluoromethyl)-1H-imidazol-2-yl)benzyl)-4,5,6,7-tetrahydropyrazolo[1,5-α]pyrimidine]: the solubility at 24 h in series [1] (setting [5]) and in series [1] (setting [6]) was below 10 µM each time. The half-life at 1 μM in series [2] and in series [3] was below 25 min each time. The 50% inhibitory concentration (IC50) (in series [4]; at USP1/UAF1 enzyme) was below 100 nM throughout.
As for `COc1ncnc(C2CC2)c1-c1nc2n(Cc3ccc(-c4nc(C(F)(F)F)cn4C(C)C)c(F)c3OC)c(=O)ccn2n1` [Example 346, 2-(4-cyclopropyl-6-methoxypyrimidin-5-yl)-4-(3-fluoro-4-(1-isopropyl-4-(trifluoromethyl)-1H-imidazol-2-yl)-2-methoxybenzyl)-[1,2,4]triazolo[1,5-a]pyrimidin-5(4H)-one], the solubility at 24 h in series [1] (setting [5]) and in series [1] (setting [6]) was below 10 µM each time. Besides, the half-life at 1 μM in series [2] and in series [3] was above 25 min throughout. Further, the half-maximal inhibitory concentration (IC50) (in series [4]; on USP1/UAF1 enzyme) was below 100 nM in each case.
As to `CC(CF)n1cc(C(F)(F)F)nc1-c1ccc(NC2CCCn3nc(-c4c(OC(F)F)ncnc4C4CC4)cc32)cc1` (stereo not drawn) [Example 249, 2-(4-cyclopropyl-6-(difluoromethoxy)pyrimidin-5-yl)-N-(4-(1-(1-fluoropropan-2-yl)-4-(trifluoromethyl)-1H-imidazol-2-yl)phenyl)-4,5,6,7-tetrahydropyrazolo[1,5-a]pyridin-4-amine], the solubility at 24 h in series [1] (setting [5]) and in series [1] (setting [6]) was below 10 µM throughout. Also, the half-life at 1 μM in series [2] and in series [3] was above 25 min each time. Moreover, the IC50 (in series [4]; on USP1/UAF1 enzyme) was below 100 nM in each case.
Turning to `CCn1cc(C(F)(F)F)nc1-c1c(F)cc(CN2C(=O)CCn3nc(-c4c(Cl)cnn4C(C)C)cc32)cc1OC` [Example 141], the solubility at 24 h in series [1] (setting [5]) and in series [1] (setting [6]) was below 10 µM each time. Also, the half-life at 1 μM in series [2] and in series [3] was above 25 min in each case. Further, the half-maximal inhibitory concentration (IC50) (in series [4]; at USP1/UAF1 enzyme) was below 100 nM each time.
As for `COc1ncnc(C2CC2)c1-c1nn2c(c1Cl)N(Cc1ccc(-c3nc(C(F)(F)F)cn3C)cc1)C(=O)CC2` [Example 33, 3-chloro-2-(4-cyclopropyl-6-methoxypyrimidin-5-yl)-4-(4-(1-methyl-4-(trifluoromethyl)-1H-imidazol-2-yl)benzyl)-6,7-dihydropyrazolo[1,5-α]pyrimidin-5(4H)-one], the solubility at 24 h in series [1] (setting [5]) and in series [1] (setting [6]) was below 10 µM each time. For the same compound, the half-life at 1 μM in series [2] and in series [3] was above 25 min throughout. The IC50 (in series [4]; at USP1/UAF1 enzyme) was below 100 nM in each case.
On to `CCOc1cccnc1-c1ccc(CN2C(=O)CCn3nc(-c4c(Cl)cnn4C(C)C)cc32)cc1Cl` [Example 307], for which the solubility at 24 h in series [1] (setting [5]) and in series [1] (setting [6]) was below 10 µM in each case. Further, the half-life at 1 μM in series [2] and in series [3] was below 25 min in each case. The values for the IC50 (in series [4]; on USP1/UAF1 enzyme) were 100 to 500 nM and below 100 nM, respectively.
With `Cc1cnn(C(C)C)c1-c1nc2n(n1)CCCN2Cc1ccc(-c2nc(C(F)(F)F)cn2C(C)C)cc1` [Example 222, 4-(4-(1-isopropyl-4-(trifluoromethyl)-1H-imidazol-2-yl)benzyl)-2-(1-isopropyl-4-methyl-1H-pyrazol-5-yl)-4,5,6,7-tetrahydro-[1,2,4]triazolo[1,5-a]pyrimidine], the solubility at 24 h is at least 10 µM in series [1] (setting [5]) and below 10 µM in series [1] (setting [6]). Besides, the half-life at 1 μM in series [2] and in series [3] was below 25 min throughout. The IC50 (in series [4]; at USP1/UAF1 enzyme) was below 100 nM each time.
As to `CCn1cc(C(F)(F)F)nc1-c1ccc(Cn2c(=O)ccn3nc(-c4c(OC(F)F)ncnc4C4CC4)nc23)cc1` [Example 345], the solubility at 24 h in series [1] (setting [5]) and in series [1] (setting [6]) was below 10 µM throughout. Also, the half-life at 1 μM in series [2] and in series [3] was above 25 min in each case. For the same compound, the IC50 (in series [4]; at USP1/UAF1 enzyme) was below 100 nM each time.
With `CCn1cc(C(F)(F)F)nc1-c1ccc(CN2C(=O)CCn3nc(-c4c(OC(F)F)ncnc4C4CC4)nc32)cc1` [Example 364, 2-(4-cyclopropyl-6-(difluoromethoxy)pyrimidin-5-yl)-4-(4-(1-ethyl-4-(trifluoromethyl)-1H-imidazol-2-yl)benzyl)-6,7-dihydro-[1,2,4]triazolo[1,5-α]pyrimidin-5(4H)-one], the solubility at 24 h in series [1] (setting [5]) and in series [1] (setting [6]) was below 10 µM each time. Further, the half-life at 1 μM in series [2] and in series [3] was above 25 min each time. Besides, the IC50 (in series [4]; on USP1/UAF1 enzyme) was below 100 nM in each case.
Consider `CCn1cc(C(F)(F)F)nc1-c1ccc(C(C)N2CCCn3nc(-c4c(Cl)cnn4C(C)C)cc32)cc1` (stereo not drawn) [Example 65], for which the solubility at 24 h in series [1] (setting [5]) and in series [1] (setting [6]) was below 10 µM throughout. Besides, the half-life at 1 μM in series [2] and in series [3] was below 25 min in each case. In addition, the IC50 (in series [4]; on USP1/UAF1 enzyme) was below 100 nM throughout.
Regarding `Cc1cnn(C(C)C)c1-c1nc2n(n1)CCC(=O)N2Cc1ccc(-c2nc(C(F)(F)F)cn2C)cc1` [Example 37, 2-(1-isopropyl-4-methyl-1H-pyrazol-5-yl)-4-(4-(1-methyl-4-(trifluoromethyl)-1H-imidazol-2-yl)benzyl)-6,7-dihydro-[1,2,4]triazolo[1,5-α]pyrimidin-5(4H)-one], the solubility at 24 h in series [1] (setting [5]) and in series [1] (setting [6]) was below 10 µM in each case. In addition, the half-life at 1 μM in series [2] and in series [3] was below 25 min each time. The IC50 (in series [4]; at USP1/UAF1 enzyme) was below 100 nM each time.
Take `COc1c(CN2C(=O)CCn3nc(-c4c(Cl)cnn4C(C)C)nc32)ccc(-c2nc(C(F)(F)F)cn2C(C)C)c1F` [Example 216]: the solubility at 24 h in series [1] (setting [5]) and in series [1] (setting [6]) was below 10 µM each time. Also, the half-life at 1 μM in series [2] and in series [3] was above 25 min throughout. Also, the IC50 in series [4] was 100 to 500 nM; on USP1/UAF1 enzyme, below 100 nM.
As for `CC(C)n1cc(C(F)(F)F)nc1-c1ccc([C@H](C)N2C(=O)CCn3nc(-c4c(Cl)cnn4C(C)C)nc32)cc1` [Example 177], the solubility at 24 h in series [1] (setting [5]) and in series [1] (setting [6]) was below 10 µM in each case. The figures for the half-life at 1 μM in series [2] and in series [3] were above 25 min and below 25 min, respectively. Besides, the IC50 (in series [4]; on USP1/UAF1 enzyme) was below 100 nM throughout.
In the case of `CCn1cc(C(F)(F)F)nc1-c1ccc(NC2CCCCn3nc(-c4c(Cl)cnn4C(C)C)cc32)cc1` (stereo not drawn) [Example 357, 2-(4-chloro-1-isopropyl-1H-pyrazol-5-yl)-N-(4-(1-ethyl-4-(trifluoromethyl)-1H-imidazol-2-yl)phenyl)-5,6,7,8-tetrahydro-4H-pyrazolo[1,5-α]azepin-4-amine], the solubility at 24 h in series [1] (setting [5]) and in series [1] (setting [6]) was below 10 µM each time. The half-life at 1 μM in series [2] and in series [3] was below 25 min in each case. Besides, the IC50 (in series [4]; at USP1/UAF1 enzyme) was below 100 nM each time.
